In patent US8802597B2, “Herbicidal pyrimidines” (E I du Pont de Nemours and Company, priority 2003, dated 2014):
Read-outs that look alike come from different tables or passages of the source.

Experiments:
Assay in all cases: Test C pre/postemergence
Type in all cases: in vivo
[1] = test system: velvetleaf (Abutilon theophrasti); settings: Abutilon theophrasti; for pest or weed control at 31 g/ha: 31 g ai/ha; for pest or weed control at 62 g/ha: 62 g ai/ha; for pest or weed control at 125 g/ha: 125 g ai/ha; for pest or weed control at 250 g/ha: 250 g ai/ha
Summary of the method: (§1)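 Injury scored visually 12–14 days after application on 0–100 scale (100 = complete control), relative to controls. Compounds, formulated with surfactant in non-phytotoxic solvent, applied to soil at planting (pre) or to 1- to 4-leaf plants 2–18 cm tall (post) in greenhouse.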

[2] = test system: crabgrass (Digitaria sanguinalis); settings: Digitaria sanguinalis; for pest or weed control at 31 g/ha: 31 g ai/ha; for pest or weed control at 62 g/ha: 62 g ai/ha; for pest or weed control at 125 g/ha: 125 g ai/ha; for pest or weed control at 250 g/ha: 250 g ai/ha
Summary of the method: as §1

[3] = test system: giant foxtail (Setaria faberii); settings: Setaria faberi; for pest or weed control at 125 g/ha: 125 g ai/ha; for pest or weed control at 31 g/ha: 31 g ai/ha; for pest or weed control at 62 g/ha: 62 g ai/ha; for pest or weed control at 250 g/ha: 250 g ai/ha
Summary of the method: as §1

[4] = test system: morningglory (Ipomoea coccinea); settings: Ipomoea; for pest or weed control at 31 g/ha: 31 g ai/ha; for pest or weed control at 62 g/ha: 62 g ai/ha; for pest or weed control at 125 g/ha: 125 g ai/ha; for pest or weed control at 250 g/ha: 250 g ai/ha
Summary of the method: as §1

[5] = test system: eastern black nightshade (Solanum ptycanthum); settings: Solanum, pre-emergence, Preemergence, read-out: Plant response rating, Nightshade
Summary of the method: as §1

kochia (Kochia scoparia) = settings: Bassia scoparia; for pest or weed control at 31 g/ha: 31 g ai/ha; for pest or weed control at 62 g/ha: 62 g ai/ha; for pest or weed control at 125 g/ha: 125 g ai/ha
Summary of the method: as §1

[6] = post-emergence, Postemergence, scale 0 to 100 (0 no effect, 100 complete control), read-out: Velvetleaf plant response rating
[7] = pre-emergence, Preemergence, scale 0 to 100, 0 no effect, 100 complete control, read-out: Plant response rating, Velvetleaf
[8] = pre-emergence, Preemergence, scale 0 to 100, read-out: Plant response rating, Velvetleaf
[9] = post-emergence, Postemergence, scale 0 to 100 (0 no effect, 100 complete control), read-out: Crabgrass plant response rating
[10] = pre-emergence, Preemergence, scale 0 to 100, 0 no effect, 100 complete control, read-out: Plant response rating, Crabgrass
[11] = pre-emergence, Preemergence, scale 0 to 100, read-out: Plant response rating, Crabgrass
[12] = post-emergence, Postemergence, scale 0 to 100 (0 no effect, 100 complete control), read-out: Foxtail, Giant plant response rating
[13] = pre-emergence, Preemergence, scale 0 to 100, 0 no effect, 100 complete control, read-out: Plant response rating, Foxtail, Giant
[14] = pre-emergence, Preemergence, scale 0 to 100, read-out: Plant response rating, Foxtail, Giant
[15] = post-emergence, Postemergence, scale 0 to 100 (0 no effect, 100 complete control), read-out: Morningglory plant response rating
[16] = pre-emergence, Preemergence, scale 0 to 100, 0 no effect, 100 complete control, read-out: Plant response rating, Morningglory
[17] = pre-emergence, Preemergence, scale 0 to 100, read-out: Plant response rating, Morningglory
[18] = post-emergence, Postemergence, scale 0 to 100 (0 no effect, 100 complete control), read-out: Kochia plant response rating
[19] = pre-emergence, Preemergence, scale 0 to 100, 0 no effect, 100 complete control, read-out: Plant response rating, Kochia

## CCOC(=O)c1nc(-c2ccc(Cl)cc2)nc(N)c1Cl [Compound 64, ethyl 6-amino-5-chloro-2-(4-chlorophenyl)-4-pyrimidinecarboxylate]
[1]; post-emergence, Postemergence, read-out: Plant response rating (scale of 0 to 100), Velvetleaf
  pest or weed control at 31 g/ha: 80%
[1]; [6]
  pest or weed control at 62 g/ha: 85%
  pest or weed control at 125 g/ha: 90%
[1]; post-emergence, Postemergence, scale 0 to 100, read-out: Plant response rating, Velvetleaf
  pest or weed control at 250 g/ha: 95%
[1]; [7]
  pest or weed control at 31 g/ha: 0%
  pest or weed control at 62 g/ha: 0%
[1]; [8]
  pest or weed control at 125 g/ha: 0%
  pest or weed control at 250 g/ha: 0%
[2]; post-emergence, Postemergence, read-out: Plant response rating (scale of 0 to 100), Crabgrass
  pest or weed control at 31 g/ha: 70%
[2]; [9]
  pest or weed control at 62 g/ha: 80%
  pest or weed control at 125 g/ha: 85%
[2]; post-emergence, Postemergence, scale 0 to 100, read-out: Plant response rating, Crabgrass
  pest or weed control at 250 g/ha: 90%
[2]; [10]
  pest or weed control at 31 g/ha: 0%
  pest or weed control at 62 g/ha: 0%
[2]; [11]
  pest or weed control at 125 g/ha: 70%
  pest or weed control at 250 g/ha: 90%
[3]; [12]
  pest or weed control at 125 g/ha: 50%
  pest or weed control at 62 g/ha: 20%
[3]; post-emergence, Postemergence, read-out: Plant response rating (scale of 0 to 100), Foxtail, Giant
  pest or weed control at 31 g/ha: 0%
[3]; post-emergence, Postemergence, scale 0 to 100, read-out: Plant response rating, Foxtail, Giant
  pest or weed control at 250 g/ha: 50%
[3]; [13]
  pest or weed control at 31 g/ha: 0%
  pest or weed control at 62 g/ha: 0%
[3]; [14]
  pest or weed control at 125 g/ha: 0%
  pest or weed control at 250 g/ha: 0%
[4]; post-emergence, Postemergence, read-out: Plant response rating (scale of 0 to 100), Morningglory
  pest or weed control at 31 g/ha: 90%
[4]; [15]
  pest or weed control at 62 g/ha: 90%
  pest or weed control at 125 g/ha: 90%
[4]; post-emergence, Postemergence, scale 0 to 100, read-out: Plant response rating, Morningglory
  pest or weed control at 250 g/ha: 90%
[4]; [16]
  pest or weed control at 31 g/ha: 0%
  pest or weed control at 62 g/ha: 0%
[4]; [17]
  pest or weed control at 125 g/ha: 0%
  pest or weed control at 250 g/ha: 10%
[5]; 31 g ai/ha, scale 0 to 100, 0 no effect, 100 complete control
  pest or weed control at 31 g/ha: 5%
[5]; 62 g ai/ha, scale 0 to 100, 0 no effect, 100 complete control
  pest or weed control at 62 g/ha: 85%
[5]; 125 g ai/ha, scale 0 to 100
  pest or weed control at 125 g/ha: 85%
[5]; 250 g ai/ha, scale 0 to 100
  pest or weed control at 250 g/ha: 95%
Kochia (Kochia scoparia); post-emergence, Postemergence, read-out: Plant response rating (scale of 0 to 100), Kochia
  pest or weed control at 31 g/ha: 80%
Kochia (Kochia scoparia); [18]
  pest or weed control at 62 g/ha: 85%
  pest or weed control at 125 g/ha: 90%
Kochia (Kochia scoparia); post-emergence, Postemergence, 250 g ai/ha, scale 0 to 100, read-out: Plant response rating, Kochia
  pest or weed control at 250 g/ha: 90%
Kochia (Kochia scoparia); [19]
  pest or weed control at 31 g/ha: 20%
  pest or weed control at 62 g/ha: 20%
Kochia (Kochia scoparia); pre-emergence, Preemergence, scale 0 to 100, read-out: Plant response rating, Kochia
  pest or weed control at 125 g/ha: 25%
